Laboratory results taken from patent publication US20240148686A1, “PHARMACEUTICAL COMPOSITION OF FORSKOLIN-ISOFORSKOLIN AND PENTACYCLIC TRITERPENOID COMPOUND, AND APPLICATION THEREOF” (CHINA PHARMACEUTICAL UNIVERSITY, priority 2021, published 2024).
Marks after values point to notes of the source that are not given here.

Columns and labels:
[1] = system: NAFLD model mice (obesity and fatty liver models induced by a high-fat diet); assay: Therapeutic effects on obesity and fatty liver (NAFLD) models induced by a high-fat diet; format: in vivo, C57 mice; conditions: for serum FFA content / serum TC content / hepatic TG content: fatty liver model mice, total 20 mg/kg intragastric once a day for 12 weeks, x±s; for serum FFA content / serum TC content: high-fat diet 12 weeks; for hepatic TG content: liver homogenate supernatant
Protocol: (§1) Notes: Statistical analysis is conducted by the GraphPad Prism 8.0 statistical software, and statistical analysis results are analyzed by t-Test. Compared with a model group, *P<0.05 indicates a statistically-significant difference between the groups: **P<0.01, […], and ****P<0.0001.
160 SPF-grade male C57 mice at 8 weeks to 9 weeks were adaptively raised for one week, and then 140 obese mice with a consistent body weight were selected and evenly divided into 14 groups with 10 mice per group, including a model group (M group), a forskolin group (F group), an isoforskolin group (IF group), an asiatic acid group (AA group), an asiaticoside group (AS group), an OA group (OA group), a betulinic acid group (BA group), a forskolin+asiatic acid combined administration group (F+AA group), a forskolin+asiaticoside combined administration group (F+AS group), forskolin+OA combined administration groups (low, medium, and high) (F+OA-1:4, 1:1, and 4:1 groups), a forskolin+betulinic acid combined administration group (F+BA group), and an isoforskolin+OA combined administration group (IF+OA group). The mice were fed by a high-fat diet (including 35% of fat, 26% of carbohydrates, and 26% of proteins) continuously for 12 weeks to establish obesity and fatty liver models, and during the modeling, a drug was intragastrically administered continuously for 12 weeks. The experimental animals were raised in ordinary mouse cages in an environment with a room temperature of 24±2° C., a humidity of 40% to 60%, and a 12 h light/12 h dark cycle.
Administration mode: A drug was prepared with a 0.5% CMC-Na solution as a solvent into a suspension, and the suspension was intragastrically administered once a day continuously for 12 weeks.
The mice were administered with a drug continuously for 12 weeks, and after the last administration, the mice were fasted without water deprivation for 12 h; a body weight of each mouse was measured, eyeballs were removed, blood was collected, and a liver was taken out and weighed; a part of the liver tissue was stored in 4% paraformaldehyde (PFA), and another part of the liver tissue was stored in liquid nitrogen; and inguinal fat was collected from a right thigh of each mouse, weighed, and stored in liquid nitrogen.
A blood sample was allowed to stand in a 4° C. refrigerator for 4 h and then centrifuged at 3,500 rpm for 10 min to 15 min; and a resulting supernatant was collected and tested by a blood bio-chemical analyzer to determine the FFA and TC levels in serum. The liver tissue stored in 4% PFA was frozen and sectioned, and then stained with oil red O to obtain slide specimens. The liver tissue stored in liquid nitrogen was homogenized and then centrifuged, and a resulting supernatant was collected and then tested by a kit to determine a TG content.

[2] = system: chronic liver fibrosis model mice induced by CCl4; assay: Therapeutic effects on chronic liver fibrosis model induced by CCl4; format: in vivo, C57BL/6 mice; conditions: total 20 mg/kg intragastric once a day for 8 weeks, x±s
Protocol: as §1
140 C57 mice were selected and evenly divided into 14 groups with 10 mice per group, including a model group (M group), a forskolin group (F group), an isoforskolin group (IF group), an asiatic acid group (AA group), an asiaticoside group (AS group), an OA group (OA group), a betulinic acid group (BA group), a forskolin+asiatic acid combined administration group (F+AA group), a forskolin+asiaticoside combined administration group (F+AS group), forskolin+OA combined administration groups (low, medium, and high) (F+OA-1:4, 1:1, and 4:1 groups), a forskolin+betulinic acid combined administration group (F+BA group), and an isoforskolin+OA combined administration group (IF+OA group). Every Thursday and Sunday, all mice each were intraperitoneally injected with a 5% carbon tetrachloride (CCl4)-containing olive oil solution continuously for 8 weeks at an injection volume of 20 mL/kg to obtain a liver fibrosis model caused by chronic liver damage.
Administration mode: A drug was prepared with a 0.5% CMC-Na solution as a solvent into a suspension, and the suspension was intragastrically administered once a day continuously for 8 weeks.
The mice were administered with a drug continuously for 8 weeks, and after the last administration, the mice were fasted without water deprivation for 12 h; a body weight of each mouse was measured, eyeballs were removed, blood was collected, and a liver was taken out and weighed; and a part of the liver tissue was stored in 4% PFA, and another part of the liver tissue was stored in liquid nitrogen.
A blood sample was allowed to stand in a 4° C. refrigerator for 4 h and then centrifuged at 3,500 rpm for 10 min to 15 min; and a resulting supernatant was collected and tested by a kit to determine AST and ALT levels. The liver tissue stored in liquid nitrogen was homogenized and then centrifuged, and a resulting supernatant was collected and then tested by an enzyme-linked immunosorbent assay (ELISA) kit to determine a PCIII content. The liver tissue stored in 4% PFA was dehydrated, fixed, sectioned, and stained to obtain H&E-stained and Sirius red-stained slide specimens.

## C=C(C)[C@@H]1CC[C@]2(C(=O)O)CC[C@]3(C)[C@H](CC[C@@H]4[C@@]5(C)CC[C@H](O)C(C)(C)[C@@H]5CC[C@]43C)[C@@H]12 [BA, Betulinic acid]
[1]
  serum FFA content: 1.245 ± 0.201 mmol/L
  serum TC content: 7.02 ± 0.63 mmol/L
  hepatic TG content: 1.10 ± 0.08 mmol/L
[2]
  serum ALT content: 849 ± 34 U/L
  serum AST content: 422 ± 45* U/L

## Asiaticoside
[1]
  serum FFA content: 1.238 ± 0.186* mmol/L
  serum TC content: 7.09 ± 0.34 mmol/L
  hepatic TG content: 1.18 ± 0.08 mmol/L
[2]
  serum ALT content: 882 ± 25 U/L
  serum AST content: 406 ± 63* U/L

## CC1(C)CC[C@]2(C(=O)O)CC[C@]3(C)C(=CC[C@@H]4[C@@]5(C)CC[C@H](O)C(C)(C)[C@@H]5CC[C@]43C)[C@@H]2C1 [OA, Oleanolic acid]
[1]
  serum FFA content: 1.182 ± 0.113* mmol/L
  serum TC content: 6.84 ± 0.54* mmol/L
  hepatic TG content: 1.03 ± 0.09* mmol/L
[2]
  serum ALT content: 888 ± 53 U/L
  serum AST content: 436 ± 51 U/L

## Forskolin
[1]; NAFLD model mice, total 20 mg/kg intragastric daily, 12 weeks
  body weight increase (FIG. 1), in words: can inhibit the increase of a body weight of mice similarly
[1]
  serum FFA content: 1.324 ± 0.124 mmol/L
  serum TC content: 7.44 ± 0.86 mmol/L
  hepatic TG content: 1.01 ± 0.07* mmol/L
[2]
  serum ALT content: 922 ± 32 U/L
  serum AST content: 447 ± 31 U/L

## C[C@H]1[C@H](C)CC[C@]2(C(=O)O)CC[C@]3(C)C(=CC[C@@H]4[C@@]5(C)C[C@@H](O)[C@H](O)[C@@](C)(CO)[C@@H]5CC[C@]43C)[C@H]12 [AA, Asiatic acid]
[1]
  serum FFA content: 1.286 ± 0.143 mmol/L
  serum TC content: 7.26 ± 0.74 mmol/L
  hepatic TG content: 1.17 ± 0.12 mmol/L
[2]
  serum ALT content: 815 ± 53* U/L
  serum AST content: 399 ± 22* U/L
